In US20190151271A1, “COMPOSITIONS AND METHODS FOR TREATMENT OF EYE DISEASES” (The Johns Hopkins University, priority 2017, published 2019):

Key:
cone survival = details: orally administered; cited from earlier work
[1] = oral formulations; cited from earlier work
[2] = cited from earlier work; for plasma level: rats, within 30 minutes following oral administration of 500 mg/kg NACA; for detection in the brain: within 30 minutes following oral administration of NACA
[3] = Evaluation of retinal penetration of NACA: NACA/NAC levels in plasma, aqueous, vitreous and retina after 20 mg/mL NACA in drinking water for 7 days; assay type: in vivo, mice (rd10 and wild type C57/BL6); details: for mean level in aqueous humor compared with plasma: 20 mg/mL NACA in drinking water (FIG. 2); for measurability in the retina: animals treated with NACA, N=20 eyes per strain (FIG. 4); for mean level in retina compared with plasma: either type of mice (FIG. 4 compared to FIG. 1); for mean retina levels: 20 mg/mL NACA in drinking water P28-P35, estimated dose 60-80 mg/day
Procedure: The objective of this study was to determine retinal levels of NACA/NAC after administration of 20 mg/mL NACA in drinking water for 7 days in a mouse model of RP and in wild type mice. This experiment was designed to provide rapid confirmation that NACA and/or NAC penetrate the retina following oral administration and to allow comparison of the tissue levels of NACA and NAC in vitreous and retina to plasma. It also provided a comparison of retinal penetration in mice with RP and wild type mice to determine if the breakdown in the blood-retinal barrier in RP affects the levels of NACA in the retina.
Animals and Treatments. Mice were treated in accordance with the recommendations of the Association for Research in Vision and Ophthalmology. Litters of homozygous rd10/rd10 mice (B6.CXB1-Pde6brd10/J) and wild type C57/BL6 mice (The Jackson Laboratory, Bar Harbor, Me.) were used for these studies.
Starting on post-natal day 28 (P28), animals were given normal drinking water (controls, n=10 for each strain) or water containing 20 mg/ml NACA (n=10 for each strain).
Analysis of NACA and NAC. Upon sacrifice of the mice on P35 (post-natal day 35), retina, aqueous, vitreous and plasma were collected, weighed, and stabilized as quickly as possible and stored at −80° C. prior to shipment to AIT Bioscience, LLC (Indianapolis, Ind.). The qualified bioanalytical method (BAM.0445.01) for the quantitation of total NAC NACA in K2EDTA was based on derivatization, protein precipitation extraction, and LC-MS/MS instrumental analysis. Any disulfides were reduced to free thiols and subsequently reacted with 2-chloro-1-methylpyridinium iodide (CMPI) to form stable thioethers. The thioether derivatives were detected by LC-MS/MS. Stable label isotope internal standards were used. The method covered a concentration range from 50.0 to 50,000 ng/mL.
Evaluation of Retinal Penetration of NACA. To determine retinal levels of NACA/NAC after administration of 20 mg/mL NACA in drinking water for 7 days. This experiment was designed to provide rapid confirmation that NACA penetrates the retina following oral administration and to compare levels of NACA and its major metabolite, NAC. in retina, aqueous humor, vitreous humor and plasma. This experiment was also designed to evaluate if the breakdown in the blood-retinal barrier in RP (simulated by the rd10 mice) affects the levels of NACA in the retina by comparing animals with RP to wild type mice.
Rd10 and C57BL/6 wild type mice began treatment at P28 (post-natal day 28), at P35 mice were euthanized and plasma, vitreous and retina samples were sent to AITBioscences (Indianapolis, Ind.) for determination of NACA and NAC levels by a validated method using high-pressure liquid chromatography with tandem mass spectrometric/mass spectrometric detection (LCMS). Experimental groups: (n=10/group). The research was performed in 4 discrete treatment groups: • 1. Rd10 allowed to freely drink NACA 20 mg/mL-spiked drinking water with measurements at P35; • 2. Rd10 allowed to freely drink untreated water with measurements at P35; • 3. C57/BL6 NACA 20 mg/mL in drinking water measurements at P35; • 4. C57/BL6 allowed to freely drink untreated water with measurements at P35.

[4] = tested on: mice exposed to phototoxic doses of light; details: cited from earlier work
rd10 mice = details: 7 mg/mL NACA versus 20 mg/mL NAC in drinking water, P35 and P50; cited from earlier work
[5] = tested on: human retinal pigment epithelial cells; details: cited from earlier work

| Molecule | cone survival and cone function (cone survival) | systemic bioavailability for oral administration [1] | plasma level [2] | detection in the brain [2] | mean level in aqueous humor compared with plasma [3] | measurability in the retina [3] | mean level in retina compared with plasma [3] | retinal pigment epithelial cell integrity, outer nuclear layer cell death, photoreceptor function [4] | protection of scotopic and photopic b-waves and cone density (rd10 mice) | protection against oxidative stress-induced cellular injury and death [5] | ratio of NACA:NAC in the retina, rd10 mice compared with C57/B16 mice ([3]; 20 mg/mL NACA in drinking water (FIG. 5)) | mean plasma level, rd10 mice compared with wild type ([3]; 20 mg/ml NACA in drinking water (FIG. 1)) | level in vitreous humor ([3]; N=7 or 8 eyes rd10, N=10 eyes C57/B16 (FIG. 3)) | mean concentration in aqueous humor, rd10 mice compared with wild type ([3]; N=8 eyes rd10, N=10 C57/B16 (FIG. 2)) | mean NACA level in plasma compared with NAC level ([3]; both strains, 20 mg/ml NACA in drinking water, N=10 per strain (FIG. 1)) | mean retina levels ([3]; rd10 mice) | mean retina levels ([3]; wild type mice) |
| --- | --- | --- | --- | --- | --- | --- | --- | --- | --- | --- | --- | --- | --- | --- | --- | --- | --- |
| CC(=O)N[C@@H](CS)C(=O)O [NAC, N-Acetylcysteine, reference compound] | promotes prolonged cone survival and maintenance of cone function | < 10% | 84.55 ± 6.73 µM | detected in the brain | lower than in plasma | measurable in all animals treated with NACA | higher, in either type of mice, than those observed in plasma | – | – | – | – | – | – | – | – | – | – |
| N-acetylcysteine amide [NACA] | – | – | 15.07 ± 5.08 µM | detected in the brain | lower than in plasma | measurable in all animals treated with NACA | higher, in either type of mice, than those observed in plasma | maintained retinal pigment epithelial cell integrity, prevented outer nuclear layer cell death and rescued photoreceptor function | more effective | protected against oxidative stress-induced cellular injury and death | greater in the retina of rd10 mice than in C57/B16 mice | greater in rd10 mice than in the wild type | A similar pattern was observed | higher in rd10 mice than wild type | greater than the NAC levels in both strains of mice | approximately 6.5 μg/g | ~2.4 µg/g |
